# Test results reported in patent US20150065466A1, “NOVEL DXR INHIBITORS FOR ANTIMICROBIAL THERAPY” (priority 2012, published 2015).
# Read-outs that look alike come from different tables or passages of the source.
# What was measured:
# [1] = target: TgDXR (Toxoplasma gondii, UniProt S8ESX0); type: biochemical, T. gondii
# [2] = target: T1, EcDXR (Escherichia coli, UniProt P45568); conditions: cited from earlier work
# [3] = target: T2, PfDXR (Plasmodium falciparum, UniProt Q8IKG4); conditions: Table 2, data from literature (footnote a); cited from earlier work
# T2 sequence (Q8IKG4 75-488): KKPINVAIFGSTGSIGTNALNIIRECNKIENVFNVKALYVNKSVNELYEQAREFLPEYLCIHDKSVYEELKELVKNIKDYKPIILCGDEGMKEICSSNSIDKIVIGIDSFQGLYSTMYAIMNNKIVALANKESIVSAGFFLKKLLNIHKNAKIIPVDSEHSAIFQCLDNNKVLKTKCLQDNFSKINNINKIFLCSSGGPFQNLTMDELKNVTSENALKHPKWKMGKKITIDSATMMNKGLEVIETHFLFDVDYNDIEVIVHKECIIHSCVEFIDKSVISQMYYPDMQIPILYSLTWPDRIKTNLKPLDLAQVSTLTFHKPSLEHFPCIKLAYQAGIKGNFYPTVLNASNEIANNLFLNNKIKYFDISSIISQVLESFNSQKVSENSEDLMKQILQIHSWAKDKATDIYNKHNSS
# [4] = test system: P. falciparum 3D7 strain; test: P. falciparum proliferation, DAPI fluorescence assay, 3D7 strain; type: cell-based; conditions: read-out: IC50 against P. falciparum proliferation, 3D7 strain
# [5] = test system: P. falciparum Dd2 strain; test: P. falciparum proliferation, DAPI fluorescence assay, Dd2 strain; type: cell-based; conditions: read-out: IC50 against P. falciparum proliferation, Dd2 strain
# [6] = test system: T. gondii; conditions: study from the Moreno group; cited from earlier work
# [7] = test system: T. gondii engineered to express the bacterial GlpT; conditions: Nair et al., 2011; cited from earlier work
# [8] = test system: P. aeruginosa isolates; conditions: Neu and Kamimura, 1981; cited from earlier work
# [9] = cited from earlier work; for half life in plasma: human plasma, patients; for oral availability: human, in vivo
# [10] = target: T1, EcDXR; test: recombinant EcDXR enzyme inhibition; type: biochemical, E. coli
# [11] = target: T2, PfDXR; test: recombinant PfDXR enzyme inhibition; type: biochemical, P. falciparum
# [12] = test system: WI-38 (fibroblast); test: cytotoxicity, MTS assay, WI-38; type: cell-based, human; conditions: at 300 μM, 48 h
# Description: PfDXR inhibitors SYC-466, -467, -408, -409 were tested against three non-cancerous human cell lines, i.e., WI-38 (fibroblast), HEK293 (kidney) and Beas2B (lung epithelial), to evaluate the potential toxicity of these compounds, using an assay routinely perform (41). 1×10^5 cells are inoculated into each well of a 96-well plate and cultured in Dulbecco's Modified Eagle's Medium (DMEM) supplemented with 10% fetal bovine serum at 37° C. in a 5% CO2 atmosphere with 100% humidity overnight for cell attachment. After addition of compounds (from 0.1-300 μM), plates are incubated for 48 h after which cell viability are assessed by the [3-(4,5-dimethylthiazol-2-yl)-5-(3-carboxymethoxyphenyl)-2-(4-sulfophenyl)-2H-tetrazolium, inner salt (MTS) assay, using a commercially available kit (Promega). IC50s of each compound can be calculated from dose response curves.
# [13] = test system: Hela; test: cytotoxicity, MTS assay, Hela; type: cell-based, human; conditions: at 300 μM, 48 h
# [14] = test system: A549; test: cytotoxicity, MTS assay, A549; type: cell-based, human; conditions: at 300 μM, 48 h
# [15] = 100 nM TgDXR, 4 mM MgCl2, 100 μM DXP, pH 7.6, read-out: Ki TgDXR
# [16] = Plasmodium falciparum, 3D7, Erythrocyte, 72 h
# [17] = Plasmodium falciparum, DD2, Erythrocyte, 72 h
# [18] = read-out: Ki against recombinant EcDXR
# [19] = 3D7 (chloroquine sensitive), erythrocyte stage, 3 days
# [20] = Dd2 (multidrug resistant), erythrocyte stage, 3 days
# [21] = Table 1, read-out: Enzyme Ki PfDXR
# TgDXR, sequence (S8ESX0 entry or part of it): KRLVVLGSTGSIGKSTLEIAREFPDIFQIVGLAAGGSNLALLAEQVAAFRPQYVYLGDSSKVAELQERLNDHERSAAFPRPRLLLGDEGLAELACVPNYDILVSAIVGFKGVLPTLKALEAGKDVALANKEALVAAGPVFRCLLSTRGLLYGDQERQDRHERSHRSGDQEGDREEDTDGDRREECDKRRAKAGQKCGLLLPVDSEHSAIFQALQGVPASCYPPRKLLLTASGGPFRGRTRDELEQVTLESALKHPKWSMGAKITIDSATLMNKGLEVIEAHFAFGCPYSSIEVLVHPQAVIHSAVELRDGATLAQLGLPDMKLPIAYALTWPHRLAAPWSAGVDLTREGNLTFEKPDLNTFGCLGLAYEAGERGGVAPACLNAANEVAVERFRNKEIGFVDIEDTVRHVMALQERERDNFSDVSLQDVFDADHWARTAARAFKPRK
# T1 sequence (P45568 whole entry): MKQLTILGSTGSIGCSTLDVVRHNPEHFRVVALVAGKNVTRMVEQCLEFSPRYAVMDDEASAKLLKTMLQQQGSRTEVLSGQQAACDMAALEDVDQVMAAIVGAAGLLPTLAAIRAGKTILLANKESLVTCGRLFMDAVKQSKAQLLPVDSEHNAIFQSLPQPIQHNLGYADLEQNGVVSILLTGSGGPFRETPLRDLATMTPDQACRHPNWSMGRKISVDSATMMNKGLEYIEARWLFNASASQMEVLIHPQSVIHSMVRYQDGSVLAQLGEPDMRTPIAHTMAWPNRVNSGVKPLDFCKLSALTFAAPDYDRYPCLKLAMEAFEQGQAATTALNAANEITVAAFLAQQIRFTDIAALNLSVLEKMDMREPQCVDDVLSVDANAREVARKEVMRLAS
Molecule,"Ki [1, 15] [nM]",Ki [2] [nM],Ki [3] [nM],Ki ([1]; read-out: Ki against TgDXR) [nM],cytotoxicity against growth of WI-38 cells [12],cytotoxicity against growth of Hela cells [13],cytotoxicity against growth of A549 cells [14],other results
O=P(O)(O)Cc1ccccn1 [Compound 3],4100,2300,3300,,,,,"Ki against TgDXR, in words [1]: low μM range"
O=CN(O)CCC(c1ccc(Cl)c(Cl)c1)P(=O)(O)O (stereo not drawn) [Compound 10],77,58,15,77,,,,
CC(=O)N(O)CCC(c1ccc(Cl)c(Cl)c1)P(=O)(O)O (stereo not drawn) [Compound 11],220,36,25,,,,,
CC(=O)N(O)CCCP(=O)(O)O [FR900098],48,,11,48,,,,"Ki ([2]; Table 2, data from literature (footnote a)): 19 nM"
O=CN(O)CCCP(=O)(O)O [Fosmidomycin],,,,90,,,,"IC50 [4, 16]: 1170 nM; IC50 [5, 17]: 440 nM; activity on T. gondii parasite [6]: no activity; killing of T. gondii expressing GlpT [7]: can effectively kill; MIC50 (inhibits 50% of P. aeruginosa isolates) [8]: 6.25 µg/mL; half life in plasma [9]: 30 to 90 min; half life in plasma ([9]; listed as 1): ~60 min; oral availability [9]: low; oral availability ([9]; listed as 1): poor"
CC(=O)N(O)CCC(c1cccnc1)P(=O)(O)O (stereo not drawn) [SYC-408],970,42,,,essentially no cytotoxicity,essentially no cytotoxicity,essentially no cytotoxicity,"Ki [10, 18]: 42 nM; Ki ([11]; listed as 5a, read-out: Ki against PfDXR): 1.9 nM; fold more active than fosmidomycin against PfDXR ([11]; ratio of Ki values): ~10 fold; IC50 [4, 19]: 440 nM; IC50 [5, 20]: 310 nM"
CC(=O)N(O)CCC(c1ccncc1)P(=O)(O)O (stereo not drawn) [SYC-409],530,82,,,essentially no cytotoxicity,essentially no cytotoxicity,essentially no cytotoxicity,"Ki [10, 18]: 82 nM; Ki [11, 21]: 13 nM; IC50 [4, 19]: 630 nM; IC50 [5, 20]: 460 nM"
O=CN(O)CCC(c1cccnc1)P(=O)(O)O (stereo not drawn) [SYC-466],,,13,55,essentially no cytotoxicity,essentially no cytotoxicity,essentially no cytotoxicity,"Ki ([10]; Table 1, read-out: Enzyme Ki EcDXR): 87 nM; Ki [11]: 13 nM; IC50 [4, 16]: 340 nM; IC50 [5, 17]: 180 nM"
O=CN(O)CCC(c1ccncc1)P(=O)(O)O (stereo not drawn) [SYC-467],79,35,,79,essentially no cytotoxicity,essentially no cytotoxicity,essentially no cytotoxicity,"Ki [10, 18]: 35 nM; Ki [11, 21]: 8.9 nM; IC50 [4, 19]: 180 nM; IC50 [5, 20]: 170 nM"
"CCN(CC)CCCC(C)Nc1ccnc2cc(Cl)ccc12 (stereo not drawn) [chloroquinone, reference compound]",,,,,,,,"IC50 ([4]; Plasmodium falciparum, 72 h, 3D7 (chloroquine sensitive), erythrocyte stage, 3 days): 28 nM; IC50 ([5]; Plasmodium falciparum, 72 h, Dd2 (multidrug resistant), erythrocyte stage, 3 days): 111 nM"
gentamicin,,,,,,,,MIC50 (inhibits 50% of P. aeruginosa isolates) [8]: 12.5 µg/mL
